Reference: PMC6139898, “Engineering xylose metabolism in thraustochytrid T18” (Biotechnology for Biofuels, 2018)

Columns and labels:
[1] = target: T1, T18 xylose isomerase (XI) (Thraustochytrium sp. ONC-T18, UniProt A0A385ZBK6); experiment: HPLC-RI substrate conversion, overnight; type: biochemical; conditions: 50 °C, 50 mM HEPES pH 7.4, 10 mM MgCl2, 5 mM MgATP; partly pure fraction
T1 construct: gene xylA
T1 sequence (A0A385ZBK6 1-439): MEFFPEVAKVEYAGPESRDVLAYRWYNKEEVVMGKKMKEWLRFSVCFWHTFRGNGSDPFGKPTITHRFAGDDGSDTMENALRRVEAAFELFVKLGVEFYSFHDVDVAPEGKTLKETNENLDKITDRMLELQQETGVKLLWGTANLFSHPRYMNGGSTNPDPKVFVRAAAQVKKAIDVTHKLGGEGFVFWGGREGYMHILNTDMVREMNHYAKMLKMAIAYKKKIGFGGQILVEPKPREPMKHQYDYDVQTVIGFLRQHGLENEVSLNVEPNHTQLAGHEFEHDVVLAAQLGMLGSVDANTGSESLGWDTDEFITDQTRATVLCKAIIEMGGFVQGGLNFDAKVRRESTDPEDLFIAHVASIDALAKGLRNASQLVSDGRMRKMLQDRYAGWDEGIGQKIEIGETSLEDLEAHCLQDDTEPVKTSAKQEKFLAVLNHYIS

XylA = target: T2, XylA (Escherichia coli, UniProt P00944); experiment: HPLC-RI substrate conversion, overnight; type: biochemical; conditions: 30 °C, 50 mM HEPES pH 7.4, 10 mM MgCl2, 5 mM MgATP
T2 construct: full length, N-terminal His tag, expressed in E. coli BL21(DE3)pLysS
T2 sequence (P00944 1-440): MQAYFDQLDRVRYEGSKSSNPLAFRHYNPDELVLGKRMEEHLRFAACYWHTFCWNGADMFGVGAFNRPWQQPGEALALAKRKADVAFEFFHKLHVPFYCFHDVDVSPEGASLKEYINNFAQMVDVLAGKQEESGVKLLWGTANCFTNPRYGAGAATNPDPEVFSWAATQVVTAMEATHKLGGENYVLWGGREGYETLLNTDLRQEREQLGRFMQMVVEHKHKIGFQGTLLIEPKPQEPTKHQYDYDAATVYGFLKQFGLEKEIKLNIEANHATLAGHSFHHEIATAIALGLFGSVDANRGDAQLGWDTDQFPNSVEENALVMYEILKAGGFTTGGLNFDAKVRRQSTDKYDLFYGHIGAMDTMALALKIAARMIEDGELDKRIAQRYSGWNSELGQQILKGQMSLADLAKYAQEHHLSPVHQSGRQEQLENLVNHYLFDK

Structure (SMILES) | HPLC-RI substrate conversion, overnight [1] | HPLC-RI substrate conversion, overnight (XylA)
OC1OC[C@@H](O)[C@H](O)[C@H]1O (stereo partly shown) [xylose] | Both XylA and T18 xylose isomerase showed increased activity on both sugars | Both XylA and T18 xylose isomerase showed increased activity on both sugars
O=C(CO)[C@@H](O)[C@H](O)CO [xylulose] | Both XylA and T18 xylose isomerase showed increased activity on both sugars | Both XylA and T18 xylose isomerase showed increased activity on both sugars
